Results reported in patent US9816103B2, “Methods of enhancing the resistance of plants to bacterial pathogens” (priority 2008, dated 2017).
No end group written: not given here.

Key:
[1] = system: wild-type leaves of Arabidopsis thaliana Col-0; test: Oxidative burst induced by elf18 peptides from phytopathogenic bacteria; type: cell-based; conditions: Col-0 leaves; relative to E. coli elf18 positive control
[2] = system: EFR (#18) Nb plants; test: Oxidative burst, luminol-based assay, EFR transgenic Nb leaf discs; type: cell-based, Nicotiana benthamiana; conditions: 100 nM peptide
Experimental: (§1) To measure the production of reactive oxygen species (ROS) in leaf tissue, size #1 leaf discs (Nb; n=12, tomato; n=8) were floated overnight in water. Each disc was then transferred to a well containing an assay mix of luminol (200 μM) and peroxidase (20 μg/ml) in 100 μl water. Each well was then treated with either: assay mix, 100 nm elf18, or 100 nm flg22. Luminescence in a 96-well plate was subsequently measured using a Flash Varioskan luminometer.

[3] = system: wild-type Nb; test: Oxidative burst, luminol-based assay, wild-type Nb leaf discs; type: cell-based, Nicotiana benthamiana; conditions: 100 nM peptide
Experimental: as §1

[4] = system: EFR plants (#18 Nb); test: Early and late defense marker gene expression by RT-PCR, EFR Nb seedlings; type: in vivo, Nicotiana benthamiana; conditions: 100 nM peptide, 0, 30, 60, 180 min
Experimental: (§2) Wild-type and #18 Nb were grown for one week on agar plates, then transferred to liquid culture and were grown for a further week. The expression of PAMP-induced genes was monitored over a time course. Seedlings were treated with 100 nM elf18 or flg22 for 0, 30, 60 or 180 minutes, and frozen in liquid nitrogen.
(§3) In brief: four elicited seedlings were thoroughly ground directly in the supplied extraction buffer in Eppendorf tubes using a pestle on an IKA RW 20 stirrer. Total RNAs were extracted using the Qiagen Rneasy Plant Mini kit. The quality of the extracted RNA was confirmed by running an ethidium bromide-stained agarose gel to reveal rRNAs. DNase treatment was performed using TURBO DNA-free kit (Ambion) and the concentration of total RNA was then measured using a Nanodrop. First strand cDNA synthesis was performed using SuperScript II Reverse Transcriptase (Invitrogen) in combination with Oligo(dT) prime on 2 μg of total RNA. One μl of cDNA was used in PCR under the following conditions: 95° C. 2 min; [95° C. 45 sec; 58° C. 45 sec; 55° C. 30 sec; 72° C. 1.5 min]×25; 72° C. 5 min. The genes used as defense markers were: CYP72D2 (cytochrome P450), FLS2 (receptor kinase for flg22), ACRE132 (putative RING finger protein) and WRKY22 (transcription factor). As loading control the constitutively expressed EF-1α housekeeping gene was also amplified.

[5] = system: wild-type Nb; test: Early and late defense marker gene expression by RT-PCR, wild-type Nb seedlings; type: in vivo, Nicotiana benthamiana; conditions: 100 nM peptide, 0, 30, 60, 180 min
Experimental: as §2, §3

[6] = system: EFR Nb; test: Callose deposition, aniline blue staining, EFR Nb leaves; type: in vivo, Nicotiana benthamiana; conditions: 100 nM peptide infiltrated, ~16 hours, data not shown
Experimental: A solution of either water, 100 nM elf18, or 100 nM flg22 was used to infiltrate leaves of 4-week old wild-type and EFR Nb. Size #3 leaf discs (n=8) were sampled after ˜16 hours and destained in methanol overnight. Discs were rinsed in water, then left to stain overnight in a solution of 0.05% aniline blue in 50 mM phosphate buffer pH 8.5. Callose deposition at the plant cell periphery could then be viewed under a fluorescence microscope.

[7] = system: Wild-type Nb plants; test: Seedling growth inhibition (fresh weight), wild-type Nb; type: in vivo, Nicotiana benthamiana; conditions: 0.1-1000 nM peptide, one week
Experimental: (§4) Wild-type, #16 and #18 Nb as well as Col and efr Arabidopsis thaliana seedlings were grown for one week onMS 1% sucrose agar plates, then transferred to liquid culture and were grown for one week in a serial dilution or elf18 or flg22. Dilutions of 0.1, 1, 10, 100 and 1000 nM were used for all five plant lines. Seedlings (n=4) were blotted on absorbent paper and their fresh weight was measured.

[8] = system: EFR plants (Nb expressing transgenic AtEFR); test: Seedling growth inhibition (fresh weight), EFR Nb; type: in vivo, Nicotiana benthamiana; conditions: 0.1-1000 nM peptide, one week
Experimental: as §4

[9] = system: Wild-type Col plants; test: Seedling growth inhibition (fresh weight), Arabidopsis wild-type Col; type: in vivo, Arabidopsis thaliana; conditions: 0.1-1000 nM peptide, one week
Experimental: as §4

[10] = system: efr plants; test: Seedling growth inhibition (fresh weight), Arabidopsis efr; type: in vivo, Arabidopsis thaliana; conditions: 0.1-1000 nM peptide, one week
Experimental: as §4

[11] = system: primary transformant tomato plants; test: Oxidative burst, luminol-based assay, AtEFR tomato primary transformants; type: cell-based, Solanum lycopersicum; conditions: 100 nm peptide; ten positive tomato lines; data not shown
Experimental: as §1, with “tomato and potato;” for “tomato;”
The detection of an oxidative burst is a relatively simple and reliable assay for defense activation. Cumulative luminescence was recorded for each plant over a time course of 40 minutes. […] Several other transformants were unable to express functional AtEFR as they give very little response to elf18, yet are able to respond to flg22 elicitation (data not shown). Other transformants, perhaps due to old age, were unable to respond to elf18 or flg22 treatment (data not shown). The 10 positive lines appear to have acquired EF-Tu responsiveness in this assay. Therefore seeds were harvested to grow homozygous lines for use in further assays to confirm of these initial results.

[12] = system: transgenic EFR potatoes (Desiree); test: Oxidative burst, luminol-based assay, transgenic EFR potatoes; type: cell-based, Solanum tuberosum; conditions: 100 nm peptide; positive potato lines; data not shown
Experimental: as §1, with “tomato and potato;” for “tomato;”
Oxidative burst assays were also conducted with transgenic EFR potatoes (Desiree).

Substance | eliciting activity (oxidative burst) [1] | release of reactive oxygen species (luminescence) [2] | release of reactive oxygen species (luminescence) [3] | defense marker gene induction [4] | defense marker gene induction [5] | callose deposition [6] | seedling growth inhibition (fresh weight) [7] | seedling growth inhibition (fresh weight) [8] | seedling growth inhibition (fresh weight) [9] | seedling growth inhibition (fresh weight) [10] | burst of ROS (cumulative luminescence over 40 minutes) [11] | burst of ROS [12]
elf18 Pseudomonas syringae pv. syringae DC3000: synthetic elf18 peptide derived from EF-Tu of Pseudomonas syringae DC3000 (pv. tomato per b37) (MAKEKFDRSLPHCNVGTI; ends and bridges not checked) | very low eliciting activity |  |  |  |  |  |  |  |  |  |  | 
elf18 Xanthomonas campestris pv campestris 8004 and B100: synthetic elf18 peptide derived from EF-Tu of Xanthomonas campestris pv. campestris 8004 and B100 (MARAKFLREKLHVNVGTI; Xanthomonas campestris pv. campestris 8004) | very low eliciting activity |  |  |  |  |  |  |  |  |  |  | 
elf18: EF-Tu epitope elf18: region of 18 amino-acids at the N-acetylated terminus of eubacterial EF-Tu recognized by EFR (Ac-MARAKFLREKLHVNVGTI) |  | peak of luminescence corresponding to a burst of ROS | never revealed a burst of ROS | marker gene expression which is at least as strong as under flg22 treatment | unable to elicit a significant amount of expression | stronger response | able to grow in the presence of up to 1000 nM elf18 | responsive | decreasing growth as elf18 concentration increases | insensitive | considerable burst of ROS | considerable burst of ROS
